According to paper PMC8548355 (Medicinal Chemistry Research, 2021):
Values after ≈ are worked out from the molar mass of the structure shown.

Experiments:
S. aureus ATCC 29213 [1] = assay: Drug interaction of 22 with FDA-approved drugs, checkerboard method; format: cell-based, Staphylococcus aureus; details: for MIC of drug in the presence of “22” “B”: S. aureus ATCC 29213, checkerboard, in combination with 22; for MIC: Staphylococcus aureus, ATCC29213, 24 h, read-out: MIC (drug alone); for Inference (drug interaction): combination of 22 with the drug, S. aureus ATCC 29213
E. coli ATCC 25922 = assay: MIC by broth microdilution against E. coli ATCC 25922; format: cell-based; details: Escherichia coli, ATCC25922, read-out: MIC against E. coli ATCC 25922
S. aureus ATCC 29213 [2] = assay: MIC by broth microdilution against S. aureus ATCC 29213; format: cell-based, Staphylococcus aureus; details: for MIC: Staphylococcus aureus, ATCC29213, read-out: MIC against S. aureus ATCC 29213, broth microdilution, 37 °C, 16–18 h; for MIC against S. aureus ATCC 29213: broth microdilution, 37 °C, 16–18 h
K. pneumoniae BAA 1705 = assay: MIC by broth microdilution against K. pneumoniae BAA 1705; format: cell-based; details: Klebsiella pneumoniae, BAA1705, read-out: MIC against K. pneumoniae BAA 1705
A. baumannii BAA 1605 = assay: MIC by broth microdilution against A. baumannii BAA 1605; format: cell-based; details: Acinetobacter baumannii, BAA1605, read-out: MIC against A. baumannii BAA 1605
MRSA NRS 10129 = assay: MIC against clinical MRSA isolate NRS 10129; format: cell-based; details: Staphylococcus aureus, MRSA|NRS10129, read-out: MIC against MRSA NRS 10129
MRSA NRS 10186 = assay: MIC against clinical MRSA isolate NRS 10186; format: cell-based; details: Staphylococcus aureus, MRSA|NRS10186, read-out: MIC against MRSA NRS 10186
MRSA NRS 10192 = assay: MIC against clinical MRSA isolate NRS 10192; format: cell-based; details: Staphylococcus aureus, MRSA|NRS10192, read-out: MIC against MRSA NRS 10192
VRSA VRS 4 = assay: MIC against clinical VRSA isolate VRS 4; format: cell-based; details: Staphylococcus aureus, read-out: MIC against VRSA VRS 4
MRSA NRS 10119 = assay: MIC against clinical MRSA isolate NRS 10119; format: cell-based; details: Staphylococcus aureus, MRSA|NRS10119, read-out: MIC against MRSA NRS 10119
MRSA NRS 10194 = assay: MIC against clinical MRSA isolate NRS 10194; format: cell-based; details: Staphylococcus aureus, MRSA|NRS10194, read-out: MIC against MRSA NRS 10194
MRSA NRS 10191 = assay: MIC against clinical MRSA isolate NRS 10191; format: cell-based; details: Staphylococcus aureus, MRSA|NRS10191, read-out: MIC against MRSA NRS 10191
VRSA VRS 12 = assay: MIC against clinical VRSA isolate VRS 12; format: cell-based; details: Staphylococcus aureus, read-out: MIC against VRSA VRS 12
MRSA NRS 10198 = assay: MIC against clinical MRSA isolate NRS 10198; format: cell-based; details: Staphylococcus aureus, MRSA|NRS10198, read-out: MIC against MRSA NRS 10198
VRSA VRS 1 = assay: MIC against clinical VRSA isolate VRS 1; format: cell-based; details: Staphylococcus aureus, read-out: MIC against VRSA VRS 1
MRSA NRS 10100 = assay: MIC against clinical MRSA isolate NRS 10100; format: cell-based; details: Staphylococcus aureus, MRSA|NRS10100, read-out: MIC against MRSA NRS 10100
MRSA NRS 10193 = assay: MIC against clinical MRSA isolate NRS 10193; format: cell-based; details: Staphylococcus aureus, MRSA|NRS10193, read-out: MIC against MRSA NRS 10193

CC(C)(O/N=C(\C(=O)N[C@@H]1C(=O)N2C(C(=O)[O-])=C(C[n+]3ccccc3)CS[C@H]12)c1csc(N)n1)C(=O)O [Ceftazidime]
MIC of drug in the presence of “22” “B” (S. aureus ATCC 29213 [1]): 16 µg/mL
MIC (S. aureus ATCC 29213 [1]): 16 µg/mL
Inference (drug interaction) (S. aureus ATCC 29213 [1]): No interaction

O=C(Nc1ccccc1)c1ccccc1 [Compound 3, N-phenylbenzamide]
MIC (E. coli ATCC 25922): > 64 µg/mL
MIC (S. aureus ATCC 29213 [2]): > 64 µg/mL
MIC (K. pneumoniae BAA 1705): > 64 µg/mL
MIC (A. baumannii BAA 1605): > 64 µg/mL

O=C(Nc1ccccc1)c1cccc(Cl)c1 [Compound 4, N-(phenyl)-3-chlorobenzamide]
MIC (E. coli ATCC 25922): > 64 µg/mL
MIC (S. aureus ATCC 29213 [2]): > 64 µg/mL
MIC (K. pneumoniae BAA 1705): > 64 µg/mL
MIC (A. baumannii BAA 1605): > 64 µg/mL

O=C(Nc1ccccc1)c1ccccc1O [Compound 5, N-(phenyl)-2-hydroxybenzamide]
MIC (E. coli ATCC 25922): > 64 µg/mL
MIC (S. aureus ATCC 29213 [2]): 64 µg/mL (≈ 300 µM)
MIC (K. pneumoniae BAA 1705): > 64 µg/mL
MIC (A. baumannii BAA 1605): > 64 µg/mL

O=C(Nc1ccccc1)c1cc(Cl)ccc1O [Compound 6, 5-Chloro-N-(phenyl)-2-hydroxy-benzamide]
MIC (E. coli ATCC 25922): > 64 µg/mL
MIC (S. aureus ATCC 29213 [2]): 8 µg/mL (≈ 32.3 µM)
MIC (K. pneumoniae BAA 1705): > 64 µg/mL
MIC (A. baumannii BAA 1605): > 64 µg/mL

O=C(Nc1ccc(F)cc1)c1ccccc1O [Compound 7, N-(4ʹ-fluorophenyl)-2-hydroxybenzamide]
MIC (E. coli ATCC 25922): > 64 µg/mL
MIC (K. pneumoniae BAA 1705): > 64 µg/mL
MIC (A. baumannii BAA 1605): > 64 µg/mL

O=C(Nc1ccc(F)cc1)c1cc(Cl)ccc1O [Compound 8, 5-Chloro-N-(4ʹ-fluorophenyl)-2-hydroxybenzamide]
MIC (E. coli ATCC 25922): > 64 µg/mL
MIC (S. aureus ATCC 29213 [2]): 2 µg/mL (≈ 7.53 µM)
MIC (K. pneumoniae BAA 1705): > 64 µg/mL
MIC (A. baumannii BAA 1605): > 64 µg/mL

O=C(Nc1ccccc1F)c1ccccc1O [Compound 9, N-(2ʹ-fluorophenyl)-2-hydroxybenzamide]
MIC (E. coli ATCC 25922): > 64 µg/mL
MIC (K. pneumoniae BAA 1705): > 64 µg/mL
MIC (A. baumannii BAA 1605): > 64 µg/mL

O=C(Nc1ccccc1F)c1cc(Cl)ccc1O [Compound 10, 5-Chloro-N-(2ʹ-fluorophenyl)-2-hydroxybenzamide]
MIC (E. coli ATCC 25922): > 64 µg/mL
MIC (S. aureus ATCC 29213 [2]): 4 µg/mL (≈ 15.1 µM)
MIC (K. pneumoniae BAA 1705): > 64 µg/mL
MIC (A. baumannii BAA 1605): > 64 µg/mL

O=C(Nc1ccc(F)c(F)c1)c1ccccc1O [Compound 11, N-(3ʹ,4ʹ-difluorophenyl)-2-hydroxybenzamide]
MIC (E. coli ATCC 25922): > 64 µg/mL
MIC (K. pneumoniae BAA 1705): > 64 µg/mL
MIC (A. baumannii BAA 1605): > 64 µg/mL

O=C(Nc1ccc(F)c(F)c1)c1cc(Cl)ccc1O [Compound 12, 5-Chloro-N-(3ʹ,4ʹ-difluorophenyl)-2-hydroxybenzamide]
MIC (E. coli ATCC 25922): > 64 µg/mL
MIC against S. aureus ATCC 29213 (S. aureus ATCC 29213 [2]): 0.5 µg/mL (≈ 1.76 µM)
MIC (K. pneumoniae BAA 1705): > 64 µg/mL
MIC (A. baumannii BAA 1605): > 64 µg/mL

O=C(Nc1ccc(F)c(Cl)c1)c1ccccc1O [Compound 13, N-(3ʹ-chloro-4ʹ-fluorophenyl)-2-hydroxybenzamide]
MIC (E. coli ATCC 25922): > 64 µg/mL
MIC (S. aureus ATCC 29213 [2]): 4 µg/mL (≈ 15.1 µM)
MIC (K. pneumoniae BAA 1705): > 64 µg/mL
MIC (A. baumannii BAA 1605): > 64 µg/mL

O=C(Nc1ccc(F)c(Cl)c1)c1cc(Cl)ccc1O [Compound 14, 5-Chloro-N-(3ʹ-chloro-4ʹ-fluorophenyl)-2-hydroxybenzamide]
MIC (S. aureus ATCC 29213 [2]): 0.5 µg/mL (≈ 1.67 µM)

O=C(Nc1ccc(F)cc1[N+](=O)[O-])c1ccccc1O [Compound 15, N-(4ʹ-fluoro-2ʹ-nitrophenyl)-2-hydroxybenzamide]
MIC (E. coli ATCC 25922): > 64 µg/mL
MIC (S. aureus ATCC 29213 [2]): 32 µg/mL (≈ 116 µM)
MIC (K. pneumoniae BAA 1705): > 64 µg/mL
MIC (A. baumannii BAA 1605): > 64 µg/mL

O=C(Nc1ccc(F)cc1[N+](=O)[O-])c1cc(Cl)ccc1O [Compound 16, 5-Chloro-N-(4ʹ-fluoro-2ʹ-nitrophenyl)-2-hydroxybenzamide]
MIC (E. coli ATCC 25922): > 64 µg/mL
MIC (S. aureus ATCC 29213 [2]): 3.88 µg/mL (≈ 12.5 µM)
MIC against S. aureus ATCC 29213 (S. aureus ATCC 29213 [2]): 4 µg/mL (≈ 12.9 µM)
MIC (K. pneumoniae BAA 1705): > 64 µg/mL
MIC (A. baumannii BAA 1605): > 64 µg/mL

O=C(Nc1ccc([N+](=O)[O-])cc1F)c1ccccc1O [Compound 17, N-(2ʹ-fluoro-4ʹ-nitrophenyl)-2-hydroxybenzamide]
MIC (S. aureus ATCC 29213 [2]): 2 µg/mL (≈ 7.24 µM)

O=C(Nc1ccc([N+](=O)[O-])cc1F)c1cc(Cl)ccc1O [Compound 18, 5-Chloro-N-(2ʹ-fluoro-4ʹ-nitrophenyl)-2-hydroxybenzamide]
MIC (E. coli ATCC 25922): > 64 µg/mL
MIC (S. aureus ATCC 29213 [2]): 1 µg/mL (≈ 3.22 µM)
MIC (K. pneumoniae BAA 1705): > 64 µg/mL
MIC (A. baumannii BAA 1605): > 64 µg/mL

O=C(Nc1ccc(Cl)c(C(F)(F)F)c1)c1ccccc1O [Compound 19, N-(4ʹ-chloro-3ʹ-(trifluoromethyl)phenyl)-2-hydroxybenzamide]
MIC (E. coli ATCC 25922): > 64 µg/mL
MIC (S. aureus ATCC 29213 [2]): 1 µg/mL (≈ 3.17 µM)
MIC (K. pneumoniae BAA 1705): > 64 µg/mL
MIC (A. baumannii BAA 1605): > 64 µg/mL

CCCCCCCCCC(=O)N[C@@H](Cc1c[nH]c2ccccc12)C(=O)N[C@H](CC(N)=O)C(=O)N[C@@H](CC(=O)O)C(=O)N[C@@H]1C(=O)NCC(=O)N[C@@H](CCCN)C(=O)N[C@@H](CC(=O)O)C(=O)N[C@H](C)C(=O)N[C@@H](CC(=O)O)C(=O)NCC(=O)N[C@H](CO)C(=O)N[C@@H]([C@H](C)CC(=O)O)C(=O)N[C@@H](CC(=O)c2ccccc2N)C(=O)O[C@@H]1C [Daptomycin]
MIC of drug in the presence of “22” “B” (S. aureus ATCC 29213 [1]): 1 µg/mL
MIC (S. aureus ATCC 29213 [1]): 1 µg/mL
Inference (drug interaction) (S. aureus ATCC 29213 [1]): No interaction

CNC(C)C1CCC(N)C(OC2C(N)CC(N)C(OC3OCC(C)(O)C(NC)C3O)C2O)O1 (stereo not shown) [Gentamicin]
MIC of drug in the presence of “22” “B” (S. aureus ATCC 29213 [1]): 0.25 µg/mL
MIC (S. aureus ATCC 29213 [1]): 0.5 µg/mL
Inference (drug interaction) (S. aureus ATCC 29213 [1]): No interaction

CC(=O)NC[C@H]1CN(c2ccc(N3CCOCC3)c(F)c2)C(=O)O1 [Linezolid]
MIC of drug in the presence of “22” “B” (S. aureus ATCC 29213 [1]): 0.5 µg/mL
MIC (S. aureus ATCC 29213 [1]): 2 µg/mL
Inference (drug interaction) (S. aureus ATCC 29213 [1]): No interaction

COc1cccc(OC)c1C(=O)N[C@@H]1C(=O)N2[C@@H]1SC(C)(C)[C@@H]2C(=O)O [Methicillin, reference compound]
MIC (MRSA NRS 10129): 32 µg/mL (≈ 84.1 µM)
MIC (MRSA NRS 10186): 64 µg/mL (≈ 168 µM)
MIC (MRSA NRS 10192): > 64 µg/mL
MIC (VRSA VRS 4): > 64 µg/mL
MIC (MRSA NRS 10119): > 64 µg/mL
MIC (MRSA NRS 10194): 32 µg/mL (≈ 84.1 µM)
MIC (MRSA NRS 10191): > 64 µg/mL
MIC (VRSA VRS 12): > 64 µg/mL
MIC (MRSA NRS 10198): > 64 µg/mL
MIC (VRSA VRS 1): > 64 µg/mL
MIC (MRSA NRS 10100): > 64 µg/mL
MIC (MRSA NRS 10193): > 64 µg/mL

CN(C)c1ccc(O)c2c1C[C@H]1C[C@H]3[C@H](N(C)C)C(O)=C(C(N)=O)C(=O)[C@@]3(O)C(O)=C1C2=O [Minocycline]
MIC of drug in the presence of “22” “B” (S. aureus ATCC 29213 [1]): 0.125 µg/mL
MIC (S. aureus ATCC 29213 [1]): 0.125 µg/mL
Inference (drug interaction) (S. aureus ATCC 29213 [1]): No interaction

CO[C@H]1/C=C/O[C@@]2(C)Oc3c(C)c(O)c4c(O)c(c(/C=N/N5CCN(C)CC5)c(O)c4c3C2=O)NC(=O)/C(C)=C\C=C\[C@H](C)[C@H](O)[C@@H](C)[C@@H](O)[C@@H](C)[C@H](OC(C)=O)[C@@H]1C [Rifampicin]
Inference (drug interaction) (S. aureus ATCC 29213 [1]): No interaction
